US20140096967A1, “SALT-TOLERANT ANIONIC SURFACTANT COMPOSITIONS FOR ENHANCED OIL RECOVERY (EOR) APPLICATIONS” (Board of Regents, The University of Texas System, priority 2012, published 2014)
Read-outs that look alike come from different tables or passages of the source. Marks after values point to notes of the source that are not given here.

Key:
[1] = conventional sodium alkylsulfates; data from O'Lenick; cited from earlier work
[2] = data from Mukerjee et al. (1971), cited from earlier work
[3] = Static adsorption test on disaggregated Berea sandstone core particles; assay type: physicochemical; conditions: 10,000 mg/L NaCl, LSR of 40, 12 hrs. equilibration at 25° C. (FIG. 19)
Excerpt: Static Adsorption Tests. A static adsorption test was used for measuring surfactant adsorption at solid-water interfaces. The procedures were adopted from the study by Hanna et al. (1977). The adsorbents used for static adsorption tests were particles disaggregated from a Berea sandstone core and sieved through a 60 mesh screen ([…]). The use of 60 mesh screen is based on the consideration that a wider and thus more representative range of particle sizes could be included. The adsorbent grains were heated in the oven overnight and cooled in a desiccator over Drierite™ before use. The surfactant concentration was measured by Total Organic Carbon (TOC) method, which represents the amount of total carbon in the sample. […] The amount of surfactant adsorbed was determined by measuring different concentrations in the solution before and after contact with the adsorbents,
Where Γ (mg/g) is the surfactant adsorption density on the adsorbents; Co and C (mg/L) are surfactant concentrations before and after adsorption tests; V (ml) is the volume of surfactant solution used in the test, and M (gram) is the mass of the adsorbents used in the test. A dimensionless quantity θ can be defined as follows: […]
Equilibrium Adsorption Time. To ensure true equilibrium adsorption, the progression of 16-4-16 adsorption level with time was recorded to identify a suitable duration for equilibration. […]

In the case of CCCCCCCCCCCCCCOS(=O)(=O)[O-].[Na+] [C14—SO4^− Na^+], the “Krafft Point” value [1] is listed as 28* ° C, the CMC ([2]; 30° C.) is listed as 2080** 10^−3 mmol/L and the CMC ([2]; 40° C.) is listed as 2210** 10^−3 mmol/L. The CMC ([2]; 60° C.) was 2770** 10^−3 mmol/L.

In the case of CCCCCCCCCCCCCCCCOS(=O)(=O)[O-].[Na+] [C16—SO4^− Na^+, sodium hexadecyl sulfate], the “maximum adsorption density, trend among surfactants” value [3] is given as 16-4-16<SHS<S13-C, the “Krafft Point” value [1] is given as 45* ° C and the CMC ([2]; 40° C.) is given as 580** 10^−3 mmol/L.

In the case of CCCCCCCCCCCCOS(=O)(=O)[O-].[Na+] [C12—SO4^− Na^+], the “Krafft Point” value [1] is listed as 16* ° C, the CMC ([2]; 30° C.) is listed as 8230** 10^−3 mmol/L and the CMC ([2]; 40° C.) is listed as 8600** 10^−3 mmol/L. The CMC ([2]; 60° C.) was 10160** 10^−3 mmol/L.
